Test results reported in patent US10533034B2, “Human iNKT cell activation using glycolipids” (ACADEMIA SINICA, priority 2014, dated 2020).

How the values were obtained:
[1] = test system: iNKT TCR of DN3A4-1.2 Vα14+ iNKT hybridoma cells; assay: Binding avidity of mCD1d-loaded glycolipids to Vα14+ iNKT cells (ternary interaction); parameters: species or system mouse; conditions: complexed with mCD1d; Scatchard transformation; flow cytometry; read-out: KD of ternary complex, mCD1d-glycolipid toward iNKT TCR
Experimental: (3A) DN3A4-1.2 Vα14+ iNKT hybridoma cells and (3B) 7DW8-5-expanded Vα24^+ iNKT cells were incubated with various concentrations of the indicated dimeric mCD d-glycolipid and hCD1d-glycolipid complexes for 30 min at 4° C., respectively. The level of bound complexes at the indicated concentration was detected by anti-mIgG1 secondary antibody and analyzed by flow cytometry. The relationship between the binding percentage and the concentration of CD1ddi-glycolipids complex was plotted in mice (3A) and humans (3B). KD values in mice (3C) and humans (3D) were calculated from Scatchard transformation of the plot (3A) and 3B), respectively. Assay was performed in duplicates.
Briefly, murine CD1d:Ig dimer (BD Biosciences PharMingen, San Diego, Calif.) was loaded with glycolipids at a molar ratio of 1:10 or vehicle for overnight at 37° C. Murine 1.2 Vα14+ iNKT cells were incubated with various doses of dimer-glycolipid complex in buffer containing azide (0.05%) for 30 min at 4° C. These cells were then stained with anti-mouse IgG1-PE mAb (A85-1) for another 30 min at 4° C., followed by washing, fixation with 4% paraformaldehyde (PFA), and the bound mCD1d dimer complexes were detected by flow cytometry. The binding curve and linear fit of the Scatchard transformation were plotted by Graphpad Prism software.
(§1) Next, we measured the ternary interaction between CD1d-glcolipid complex and the iNKT TCR in mice and humans. Different concentrations of mCD1d^di-glycolipid and hCD1d^di-glycolipid complexes were incubated with fixed amounts of DN3A4-1.2 murine iNKT hybridoma cells and human Vα24+/Vβ11^+ iNKT cells, respectively. The level of bound complexes at the indicated concentration was detected by anti-mIgG1 secondary antibody and analyzed by flow cytometry (FIGS. 3A and 3B). The KD of the ternary complex was calculated from the Scatchard transformation of the plots in FIGS. 3A and 3B using GraphPad Prism software. […] This was consistent with the observation that higher percentages of C1-pulsed splenocytes were stained by the mCD1d-7DW8-5 complex (36.2±5.0%) than mCD1d-7DW8-5-Glc complex (17.1±0.8%) (FIG. 11).

Vα24+/Vβ11+ iNKT TCR = Vα24+/Vβ11+ iNKT TCR (Homo sapiens, UniProt A0A075B6N4+A0A0B4J240+P15813); assay: Binding avidity of hCD1d-loaded glycolipids with Vα24+ iNKT cells (ternary interaction); conditions: in complex with hCD1d; Scatchard transformation; read-out: KD of ternary complex, hCD1d-glycolipid toward Vα24+/Vβ11+ iNKT TCR
Experimental: as §1, with “(3A) DN3A4-1.2 Vα14+ iNKT hybridoma cells and (3B) 7DW8-5-expanded Vα24^+ iNKT cells were incubated with various concentrations of the indicated dimeric mCD d-glycolipid and hCD1d-glycolipid complexes for 30 min at 4° C., respectively. The level of bound complexes at the indicated concentration was detected by anti-mIgG1 secondary antibody and analyzed by flow cytometry. The relationship between the binding percentage and the concentration of CD1ddi-glycolipids complex was plotted in mice (3A) and humans (3B). KD values in mice (3C) and humans (3D) were calculated from Scatchard transformation of the plot (3A) and 3B), respectively. Assay was performed in duplicates. Binding avidity of human CD1d-glycolipid complexes to Vα24^+ iNKT cells expanded by 7DW8-5 at 100 ng/ml was determined as described previously.^19 Next,” for “Next,”

B6 WT mice splenocytes = assay: FACS analyses of WT mouse immune cells after glycolipid stimulation; type: in vivo; conditions: 1 μg/mouse; 72 hr
Experimental: B6 WT mice treated with the indicated glycolipid (1 μg/mouse) or vehicle (1% DMSO in PBS) were sacrificed at 72 hr post-injection and their splenocytes were subjected to FACS analysis. (8A) The total splenocytes, (8B) total CD11Chi cells, (8C) CD11Chi/CD80+ cells, (8D) CD11Chi/CD86+ cells, (8E) CD4^+ T cells and (8F) CD8^+ T cells.
B6 WT or Jα18 KO mice treated with specific glycolipid (1 μg/mouse) or vehicle (1% DMSO in PBS) were sacrificed at 72 hr post-injection and their spleens were harvested. After pressing spleens through 70 um strainer and lysis of erythrocytes, the nucleated cells were resuspended in PBS buffer containing azide (0.05%) and stained with antibodies recognizing the indicated cell surface antigens for 30 min at 4° C. After washing, the splenocytes were subjected to FACS analysis. The antibodies against CD3, CD4, CD8α, CD11c, CD80, and CD86 were obtained from BD Bioscience-Pharmingen.
Next, we analyzed the expansion/activation of immune cells in WT mice 3 days after glycolipid stimulation. The numbers of total T cells, CD4^+ T and CD8^+ T cells were higher in mice treated by GSLs with αGal head than those treated by GSLs with αGlc (FIGS. 2C, 8E and 8F). This was in line with the observation that more cytokines/chemokines were induced by GSLs with αGal than GSLs with αGlc in mice (FIGS. 2A, 2B and 7). […] As compared to 7DW8-5-Glc, C1-Glc not only expanded ˜1.3 fold more splenocytes and DCs (FIGS. 8A and 8B) but also activated ˜3.5 fold more CD80^+ DCs as well as ˜3 fold more CD86^+ DCs (FIGS. 8C and 8D). The increased expansion/activation of DCs may contribute to the stronger immunogenicity triggered by C1-Glc and C34-Glc as compared to 7DW8-5-Glc in vivo.

B6 wild type mice = assay: Murine serum cytokine/chemokine secretion after i.v. glycolipid, wild type mice; type: in vivo, mouse; conditions: 1 μg/mouse i.v.; 2 and 18 hr
Experimental: B6 wild type mice were i.v. injected with 7DW8-5-Glc at 0.1 or 1 μg/mouse. Sera collected at 2 h and 18 h post-injection were analyzed for chemokine secretions such as IP-10 (6A), KC (6B), MCP-1 (6C), and MIP-1α (6D). These chemokines peaked at 2 hr post-injection.
B6 wild type and Jα18 knockout mice were i.v. injected with the indicated glycolipids (1 μg/mouse) or vehicle. Sera collected at 2 h and 18 h post-injection were analyzed for cytokines like IL-2 (7A), IL-6 (7B), GM-CSF (7C) and TNFα (7D) as well as chemokines such as IP-10 (7E), MIG (7F), KC (7G) and MCP-1 (7H). Only MIG peaked at 18 hr post-injection, while the others peaked at 2 hr post-injection.
All the glycolipids were dissolved in 100% DMSO at a concentration of 1-2 mg/ml. For in vivo experiments, all compounds were diluted to 10 μg/ml in saline just before injection of 100 μl diluted glycolipid or 100 μl 1% DMSO into mice. Pathogen-free C57BL/6 female mice aged 6-12 weeks were obtained from the National Laboratory Animal Center (Taipei, Taiwan). Jα18 knockout (KO) B6 mice were the gifts from Dr. Masaru Taniguchi (RIKEN Research Center for Allergy and Immunology, Yokohama, Japan). All the mice were maintained in pathogen free vivarium of Institute of Cellular and Organismic Biology, Academia Sinica (Taipei, Taiwan).
B6 WT or Jα18 KO mice were intravenously injected with vehicle or glycolipids at 0.1 or 1 μg/mouse. Serum was collected at 2 and 18 h after injection for measurement of cytokines/chemokines by Beadlyte® Mouse Cytokine kit (Millipore, N.Y.) and read by a Luminex® 200™ system (Luminex, Austin, Tex.).
Previously, 0.1 μg/mouse of 7DW8-5 was sufficient for immune stimulation,^19 but higher dosage (1 μg/mouse) was required for the glucose analog 7DW8-5-Glc to induce immune responses (FIG. 6). Thus, the biological activities of newly synthesized glycolipids were tested in B6 mice 2 and 18 hr after i.v. injection of glycolipids at 1 μg/mouse. […] As compared to GSLs with αGlc, GSLs with αGal induced higher levels of cytokines and chemokines, including IFN-γ, IL-2, IL-4, IL-6, GM-CSF, TNFα and IP-10.

[2] = test system: human Vα24-restricted NKT cells; assay: Cytokine production of human iNKT cells co-cultured with autologous DCs and glycolipids (Luminex); type: cell-based; conditions: 1 μg/mL; 72 hrs
Experimental: Human Vα24-restricted NKT cells were isolated from PBMC by magnetic beads, and iNKT cells were cultured with 50 μ/mL recombinant human IL-2. Two days later, iNKT cells were co-cultured with autologous monocyte-derived DCs and different glycolipids at 1 μg/mL in 96 wells. At 72 hrs, the supernatant were collected to determine the cytokines profiles by Luminex. (A) Secretion of IFN-γ and IL-4 was similar among all glycolipids. […] One-way ANOVA was used for statistic analysis. ***P<0.001 compared with C1. #, P<0.05 compared to C34.
To compare the capacities of C1, C34, K691, K705 and K706 in activating human iNKT cells, human Vα24-restricted NKT cells were isolated from PBMC by magnetic beads, and incubated with recombinant human IL-2 ([…]). Two days later, iNKT cells were co-cultured with autologous monocyte-derived DCs loaded with different glycolipids (1 μg/mL), including C1, C34, K691, K705 and K706, in 96 wells for three days. The supernatants were collected to determine cytokines/chemokines by Luminex assay. […] (Statistical evaluation was performed using one-way ANOVA. *P<0.05 compared with C1. #, P=0.002 compared with C34, using Student's T test).

| Kd (Vα24+/Vβ11+ iNKT TCR) [nM] | Compound | Kd [1] [nM] | CD80+ DCs activated, fold more than 7DW8-5-Glc (B6 WT mice splenocytes) [fold] | CD86+ DCs activated, fold more than 7DW8-5-Glc (B6 WT mice splenocytes) [fold] | DCs expanded, fold more than 7DW8-5-Glc (B6 WT mice splenocytes) [fold] | splenocytes expanded, fold more than 7DW8-5-Glc (B6 WT mice splenocytes) [fold] | induction of serum cytokines/chemokines (B6 wild type mice) | Ratio of IFN-γ/IL-4 compared with C1 [2] |
| --- | --- | --- | --- | --- | --- | --- | --- | --- |
| 16.4 ± 4.2 | CCCCCCCCCCCCCCCCCCCCCCCCCC(=O)N[C@@H](CO[C@H]1O[C@H](CO)[C@H](O)[C@H](O)[C@H]1O)[C@H](O)[C@H](O)CCCCCCCCCCCCCC [Compound C1, α-Galactosyl ceramide, reference compound] | 1.24 ± 0.003 | – | – | – | – | – | – |
| 8.55 ± 0.617 | CCC(=O)N[C@@H](CO[C@H]1OC(CO)[C@@H](O)C(O)C1O)[C@H](O)[C@H](O)CC (some centres unmarked) [Compound C1-Glc] | 5.14 ± 0.11 | ~3.5 | ~3 | ~1.3 | ~1.3 | triggered both cytokines and chemokines | – |
| 0.378 ± 0.019 | CC[C@@H](O)[C@@H](O)[C@H](CO[C@H]1OC(CO)[C@@H](O)C(O)C1O)NC(=O)Cc1ccc(Oc2ccc(F)cc2)cc1 (some centres unmarked) [Compound C34-Glc] | 7.96 ± 1.27 | ~2 | ~2 | – | – | triggered both cytokines and chemokines | – |
| 0.498 ± 0.005 | CCCCCCCCCCCCCCC(O)C(O)C(COC1OC(CO)C(O)C(O)C1O)NC(=O)CCCCCCCCCCc1ccc(Oc2ccc(F)cc2)cc1 (centres unmarked) [Compound C34] | 0.735 ± 0.01 | – | – | – | – | – | significantly higher |
